Peptide text beside a SMILES is read from it.
Tests used:
[1] = Concentration of sweetener with the same degree of sweetness as a 6% aqueous sucrose solution (Example 14, Table 20); format: in vivo
Method: Aqueous solutions containing various sweeteners (stevia extract, siraitia grosvenori extract, licorice extract, thaumatin, aspartame, and neotame) in the concentrations shown in Table 20 were prepared.

panelists [2] = experiment: Improvement in sweetness quality of sweeteners by additives, panel score (Example 14); format: in vivo; details: for improvement in sweetness quality, average score of twelve panelists: vs sweetener alone, 2 improvement, 1 slight improvement, 0 no improvement; for improvement in the sweetness quality of stevia extract: additive added to 0.03% stevia extract aqueous solution
Method: Aqueous solutions containing various sweeteners (stevia extract, siraitia grosvenori extract, licorice extract, thaumatin, aspartame, and neotame) in the concentrations shown in Table 20 were prepared. […] The evaluation was conducted by scoring the improvement in sweetness quality based on the criteria described below in comparison with an aqueous solution containing only each of the sweeteners (Control).

panelists [3] = experiment: as above; format: in vivo; details: additive added to 0.03% stevia extract aqueous solution
[4] = Concentration having the same degree of sweetness as a 5% aqueous sucrose solution (Example 1, Table 1); format: in vivo
Description: The degree of sweetness of rebaudioside A and that of mogroside V depends on the pH. […] Citric acid and trisodium citrate were used to prepare pH3 and pH4.5 solutions, and sodium bicarbonate was used to prepare pH7 solutions.

[5] = general statement in description; cited from earlier work
[6] = additive Gentiooligosaccharide (Gentose#45) 0.4%
[7] = additive Highly branched cyclic dextrin (Cluster Dextrin) 0.07%
[8] = additive Magnesium chloride 0.05%
[9] = additive Magnesium sulfate 0.05%

Compound	Concentration (%) exhibiting the same degree of sweetness as a 6% aqueous sucrose solution [1] [%]	improvement in sweetness quality, average score of twelve panelists (panelists [2]; [6]) [points]	improvement in sweetness quality, average score of twelve panelists (panelists [2]; [7]) [points]	improvement in sweetness quality, average score of twelve panelists (panelists [2]; [8]) [points]	improvement in sweetness quality, average score of twelve panelists (panelists [2]; [9]) [points]	improvement in sweetness quality, average score of twelve panelists (panelists [2]; additive Naringin 0.0025%) [points]	remaining aftertaste of sweetness in stevia extract (panelists [3])	richness (body) of stevia extract (panelists [3])	further results
COC(=O)[C@H](Cc1ccccc1)NC(=O)[C@@H](N)CC(=O)O [Aspartame, aspartame] (H-Asp-Phe-OMe)	0.038	0.3	0.3	0.8	0.7	0.3			
[Cl-].[Cl-].[Mg+2] [Magnesium chloride, magnesium chloride]							reduced	increased	improvement in the sweetness quality of stevia extract (panelists [2]): remarkably excellent improvements
O=S(=O)([O-])[O-].[Mg+2] [Magnesium sulfate, magnesium sulfate]							reduced	increased	improvement in the sweetness quality of stevia extract (panelists [2]): remarkably excellent improvements
C[C@H](CC[C@@H](O[C@@H]1O[C@H](CO[C@@H]2O[C@H](CO)[C@@H](O)[C@H](O)[C@H]2O)[C@@H](O)[C@H](O)[C@H]1O[C@@H]1O[C@H](CO)[C@@H](O)[C@H](O)[C@H]1O)C(C)(C)O)[C@H]1CC[C@@]2(C)[C@@H]3CC=C4[C@@H](CC[C@H](O[C@@H]5O[C@H](CO[C@@H]6O[C@H](CO)[C@@H](O)[C@H](O)[C@H]6O)[C@@H](O)[C@H](O)[C@H]5O)C4(C)C)[C@]3(C)[C@H](O)C[C@]12C [Mogroside V, mogroside V]									concentration having the same degree of sweetness as a 5% aqueous sugar solution ([4]; pH 3, substance singly): 0.03%; concentration having the same degree of sweetness as a 5% aqueous sugar solution ([4]; pH 4.5, substance singly): 0.03%; concentration having the same degree of sweetness as a 5% aqueous sugar solution ([4]; pH 7, substance singly): 0.0255%; degree of sweetness (sweetness intensity) [5]: about 300 times that of sucrose
C[C@@H]1O[C@@H](O[C@H]2[C@H](Oc3cc(O)c4c(c3)O[C@H](c3ccc(O)cc3)CC4=O)O[C@H](CO)[C@@H](O)[C@@H]2O)[C@H](O)[C@H](O)[C@H]1O [Naringin, naringin]							reduced	increased	
COC(=O)[C@H](Cc1ccccc1)NC(=O)[C@H](CC(=O)O)NCCC(C)(C)C [Neotame, neotame]	0.0008	0.8	0.8	0.8	0.8	1.0			
C=C1C[C@@]23CC[C@H]4[C@@](C)(CCC[C@@]4(C)C(=O)O[C@@H]4O[C@H](CO)[C@@H](O)[C@H](O)[C@H]4O)[C@@H]2CC[C@]1(O[C@@H]1O[C@H](CO)[C@@H](O)[C@H](O[C@@H]2O[C@H](CO)[C@@H](O)[C@H](O)[C@H]2O)[C@H]1O[C@@H]1O[C@H](CO)[C@@H](O)[C@H](O)[C@H]1O)C3 [Rebaudioside A, rebaudioside A]									concentration having the same degree of sweetness as a 5% aqueous sugar solution ([4]; pH 3, substance singly): 0.0228%; concentration having the same degree of sweetness as a 5% aqueous sugar solution ([4]; pH 4.5, substance singly): 0.0219%; concentration having the same degree of sweetness as a 5% aqueous sugar solution ([4]; pH 7, substance singly): 0.02%
thaumatin	0.0024	0.8	0.5	1.0	1.3	0.7			

Source: patent publication US9044038B2, “Method of improving sweetness qualities of stevia extract” (SAN-EI GEN F.F.I., INC., priority 2007, dated 2015)
